Laboratory results from ChEMBL document CHEMBL3885861, “Open TG-GATES”.

Species on record: Rattus norvegicus
Experiment: Open TG-GATES - Regimen: Single
Format: toxicity, organism-based, Sprague-Dawley
Parameters: regimen Single, gender Male, age 6 weeks
Details: in vivo, po, route gavage; for APTT / Bas / Eos / Fbg / Hb / Ht / Lym / MCH / MCHC / MCV / Mono / Neu / PT / Plat / RBC / Ret / WBC: tissue Blood; for A/G / ALP / ALT / AST / BUN / CRE / Ca / Cl / DBIL / GLC / IP / K / LDH / Na / PL / RALB / TBIL / TC / TG / TP / gamma-GTP: tissue Plasma
[1] = 30 mg/kg, 3 h, dose level Middle
[2] = 30 mg/kg, 6 h, dose level Middle
[3] = 30 mg/kg, 9 h, dose level Middle
[4] = 30 mg/kg, 24 h, dose level Middle
[5] = 100 mg/kg, 3 h, dose level High
[6] = 100 mg/kg, 6 h, dose level High
[7] = 100 mg/kg, 9 h, dose level High
[8] = 100 mg/kg, 24 h, dose level High

## Cn1cc[nH]c1=S [METHIMAZOLE]
[1]
  TERMINAL_BW: 210.9 g
  APTT: 22.2 s
  Bas: 0%
  Eos: 1%
  Fbg: 305 mg/dL
  Hb: 14.3 g/dL
  Ht: 40.3%
  Lym: 73.2%
  MCH: 21.7 pg
  MCHC: 35.4%
  MCV: 61.4 fL
  Mono: 3%
  Neu: 21.8%
  PT: 15.9 s
  Plat: 120.3 x10_4/uL
  RBC: 657.4 x10_4/ul
  Ret: 8%
  WBC: 65.4 x10_2/uL
  A/G: 1.1
  ALP: 1707.8 IU/L
  ALT: 42.8 IU/L
  AST: 72.2 IU/L
  BUN: 10.4 mg/dL
  CRE: 0.1 mg/dL
  Ca: 10.7 mg/dL
  Cl: 105 meq/L
  DBIL: 0 mg/dL
  GLC: 186.4 mg/dL
  IP: 10.1 mg/dL
  K: 4.3 meq/L
  LDH: 250.2 IU/L
  Na: 141.6 meq/L
  PL: 146 mg/dL
  RALB: 2.9 g/dL
  TBIL: 0.006 mg/dL
  TC: 82.4 mg/dL
  TG: 64.4 mg/dL
  TP: 5.7 g/dL
  gamma-GTP: 1 IU/L
[2]
  TERMINAL_BW: 208.1 g
  APTT: 22.7 s
  Bas: 0%
  Eos: 1%
  Fbg: 316.8 mg/dL
  Hb: 14 g/dL
  Ht: 40%
  Lym: 73.6%
  MCH: 22 pg
  MCHC: 35%
  MCV: 62.7 fL
  Mono: 2.8%
  Neu: 21.8%
  PT: 16.2 s
  Plat: 123.7 x10_4/uL
  RBC: 637.2 x10_4/ul
  Ret: 8.4%
  WBC: 68.1 x10_2/uL
  A/G: 1.2
  ALP: 1225.2 IU/L
  ALT: 46.2 IU/L
  AST: 71.8 IU/L
  BUN: 11.8 mg/dL
  CRE: 0.1 mg/dL
  Ca: 10.6 mg/dL
  Cl: 103.4 meq/L
  DBIL: 0.002 mg/dL
  GLC: 196.2 mg/dL
  IP: 9.4 mg/dL
  K: 4.2 meq/L
  LDH: 329.8 IU/L
  Na: 140.4 meq/L
  PL: 141.2 mg/dL
  RALB: 2.9 g/dL
  TBIL: 0.01 mg/dL
  TC: 79.8 mg/dL
  TG: 45 mg/dL
  TP: 5.5 g/dL
  gamma-GTP: 1 IU/L
[3]
  TERMINAL_BW: 205.3 g
  APTT: 22.1 s
  Bas: 0%
  Eos: 1.2%
  Fbg: 299.8 mg/dL
  Hb: 13.7 g/dL
  Ht: 38.8%
  Lym: 75.4%
  MCH: 21.5 pg
  MCHC: 35.4%
  MCV: 60.8 fL
  Mono: 2.4%
  Neu: 20.2%
  PT: 15.7 s
  Plat: 121.8 x10_4/uL
  RBC: 640 x10_4/ul
  Ret: 8.1%
  WBC: 70 x10_2/uL
  A/G: 1.2
  ALP: 1422 IU/L
  ALT: 43.8 IU/L
  AST: 71.4 IU/L
  BUN: 12.8 mg/dL
  CRE: 0.1 mg/dL
  Ca: 10.5 mg/dL
  Cl: 105.2 meq/L
  DBIL: 0.004 mg/dL
  GLC: 198 mg/dL
  IP: 8.7 mg/dL
  K: 3.8 meq/L
  LDH: 353.6 IU/L
  Na: 140.6 meq/L
  PL: 155.8 mg/dL
  RALB: 3 g/dL
  TBIL: 0.012 mg/dL
  TC: 85.4 mg/dL
  TG: 81 mg/dL
  TP: 5.6 g/dL
  gamma-GTP: 1 IU/L
[4]
  TERMINAL_BW: 212.4 g
  APTT: 21 s
  Bas: 0%
  Eos: 1%
  Fbg: 320.4 mg/dL
  Hb: 13.9 g/dL
  Ht: 39.6%
  Lym: 76.6%
  MCH: 21.8 pg
  MCHC: 35.2%
  MCV: 62 fL
  Mono: 2.4%
  Neu: 19%
  PT: 16.3 s
  Plat: 115.8 x10_4/uL
  RBC: 640 x10_4/ul
  Ret: 7.8%
  WBC: 84 x10_2/uL
  A/G: 1.1
  ALP: 1634.4 IU/L
  ALT: 42.4 IU/L
  AST: 64.6 IU/L
  BUN: 15.4 mg/dL
  CRE: 0.1 mg/dL
  Ca: 10.7 mg/dL
  Cl: 106 meq/L
  DBIL: 0 mg/dL
  GLC: 180.6 mg/dL
  IP: 7 mg/dL
  K: 4.4 meq/L
  LDH: 211.4 IU/L
  Na: 141.6 meq/L
  PL: 158.6 mg/dL
  RALB: 3 g/dL
  TBIL: 0.002 mg/dL
  TC: 84.6 mg/dL
  TG: 131.4 mg/dL
  TP: 5.6 g/dL
  gamma-GTP: 1 IU/L
[5]
  TERMINAL_BW: 213.6 g
  APTT: 21.9 s
  Bas: 0%
  Eos: 1.2%
  Fbg: 315 mg/dL
  Hb: 13.9 g/dL
  Ht: 39.4%
  Lym: 74%
  MCH: 21.8 pg
  MCHC: 35.2%
  MCV: 61.9 fL
  Mono: 2%
  Neu: 23%
  PT: 15.4 s
  Plat: 121.9 x10_4/uL
  RBC: 636.8 x10_4/ul
  Ret: 8.7%
  WBC: 50 x10_2/uL
  A/G: 1.2
  ALP: 1490.2 IU/L
  ALT: 55 IU/L
  AST: 72.8 IU/L
  BUN: 11.8 mg/dL
  CRE: 0.1 mg/dL
  Ca: 10.6 mg/dL
  Cl: 102.8 meq/L
  DBIL: 0.002 mg/dL
  GLC: 191.2 mg/dL
  IP: 9.7 mg/dL
  K: 4.2 meq/L
  LDH: 351.4 IU/L
  Na: 140 meq/L
  PL: 153.6 mg/dL
  RALB: 3 g/dL
  TBIL: 0.008 mg/dL
  TC: 89.2 mg/dL
  TG: 62.8 mg/dL
  TP: 5.6 g/dL
  gamma-GTP: 1 IU/L
[6]
  TERMINAL_BW: 210.2 g
  APTT: 22.6 s
  Bas: 0%
  Eos: 0.8%
  Fbg: 306.6 mg/dL
  Hb: 14.1 g/dL
  Ht: 40.5%
  Lym: 72.4%
  MCH: 21.4 pg
  MCHC: 34.7%
  MCV: 61.7 fL
  Mono: 3%
  Neu: 23%
  PT: 16 s
  Plat: 117.2 x10_4/uL
  RBC: 657.2 x10_4/ul
  Ret: 7.8%
  WBC: 83.4 x10_2/uL
  A/G: 1.1
  ALP: 1474.2 IU/L
  ALT: 46.2 IU/L
  AST: 66.8 IU/L
  BUN: 10 mg/dL
  CRE: 0.1 mg/dL
  Ca: 10.5 mg/dL
  Cl: 104.4 meq/L
  DBIL: 0.002 mg/dL
  GLC: 193 mg/dL
  IP: 9.1 mg/dL
  K: 4.2 meq/L
  LDH: 344.8 IU/L
  Na: 140.2 meq/L
  PL: 136.6 mg/dL
  RALB: 2.9 g/dL
  TBIL: 0.014 mg/dL
  TC: 80.2 mg/dL
  TG: 52.4 mg/dL
  TP: 5.5 g/dL
  gamma-GTP: 1.2 IU/L
[7]
  TERMINAL_BW: 206.1 g
  APTT: 21.2 s
  Bas: 0%
  Eos: 1%
  Fbg: 319.2 mg/dL
  Hb: 13.8 g/dL
  Ht: 39%
  Lym: 71.4%
  MCH: 21.8 pg
  MCHC: 35.3%
  MCV: 61.7 fL
  Mono: 2.8%
  Neu: 23.4%
  PT: 16.5 s
  Plat: 134.8 x10_4/uL
  RBC: 631.2 x10_4/ul
  Ret: 8.1%
  WBC: 88.6 x10_2/uL
  A/G: 1.2
  ALP: 1403 IU/L
  ALT: 47 IU/L
  AST: 69.8 IU/L
  BUN: 12.6 mg/dL
  CRE: 0.1 mg/dL
  Ca: 10.4 mg/dL
  Cl: 105.6 meq/L
  DBIL: 0.004 mg/dL
  GLC: 195.2 mg/dL
  IP: 8.6 mg/dL
  K: 4.2 meq/L
  LDH: 309.6 IU/L
  Na: 140.6 meq/L
  PL: 144.4 mg/dL
  RALB: 2.9 g/dL
  TBIL: 0.014 mg/dL
  TC: 78.6 mg/dL
  TG: 71.6 mg/dL
  TP: 5.5 g/dL
  gamma-GTP: 1 IU/L
[8]
  TERMINAL_BW: 209.2 g
  APTT: 20.8 s
  Bas: 0%
  Eos: 1.2%
  Fbg: 303.8 mg/dL
  Hb: 14.1 g/dL
  Ht: 40%
  Lym: 76.8%
  MCH: 21.6 pg
  MCHC: 35.3%
  MCV: 61.1 fL
  Mono: 2.4%
  Neu: 18.8%
  PT: 16.5 s
  Plat: 125.7 x10_4/uL
  RBC: 655.6 x10_4/ul
  Ret: 7.6%
  WBC: 63.5 x10_2/uL
  A/G: 1.2
  ALP: 1903.8 IU/L
  ALT: 44.2 IU/L
  AST: 55.6 IU/L
  BUN: 12.6 mg/dL
  CRE: 0.1 mg/dL
  Ca: 10.9 mg/dL
  Cl: 106.4 meq/L
  DBIL: 0.004 mg/dL
  GLC: 170 mg/dL
  IP: 7.2 mg/dL
  K: 4.3 meq/L
  LDH: 263 IU/L
  Na: 142 meq/L
  PL: 159.8 mg/dL
  RALB: 2.9 g/dL
  TBIL: 0.016 mg/dL
  TC: 84.6 mg/dL
  TG: 129.6 mg/dL
  TP: 5.4 g/dL
  gamma-GTP: 1 IU/L
